# Laboratory results published in patent US5616563A, “Glutathione N-hydroxycarbamoyl thioesters and method of inhibiting neoplastic growth” (University of Maryland Baltimore Campus, priority 1994, dated 1997).
# Key:
# [1] = test system: human erythrocytes; experiment: Erythrocyte uptake of 35S-labeled compounds
# Method: In order to test the ability of human erythrocytes to take up the above enediol and its ethyl ester derivative, suspensions of washed human erythrocytes were separately incubated with [^35 S] GSH, [^35 S]S-(N-hydroxy N-methylcarbamoyl) glutathione, and with [^35 S] S-(N-hydroxy N-methylcarbamoyl) glutathione[glycyl]-O-ethyl ester. The tests were conducted with 50:50 (v:v) erythrocytes in PBS buffer at 37° C. in the presence of 8.5 mM extracellular [^35 S] labeled compounds.
# [2] = of substituent R; cited from earlier work
# [3] = biological target: bovine liver glyoxalase II (Bos taurus, UniProt Q3B7M2); experiment: Substrate and inhibition studies with bovine liver glyoxalase II; details: for Vm (rel.): relative to Vm for S-D-lactoylglutathione
# Method: The standard errors for Vm and Km were obtained by analysis of the initial rate data using the HYPER program of Cleland.
# ^a HEPES buffer (100 mM, pH 7.4), 25° C.
# ^b Listed values are relative to Vm for SD-lactoylglutathione.
# ^c Inhibition constants obtained from using the enediol analogs as
# [4] = test system: Human Leukemia 60 (HL60) cells; experiment: Growth inhibition and kill of human leukemia 60 cells; type: cell-based; details: HL60, 72 hr. incubation; for IC50: Homo sapiens, HL-60, read-out: GI (concentration for 50% cell growth inhibition)
# Method: The observation that compounds 2 and 6(c) inhibit tumor cell growth, but were not strongly cytotoxic to tumor cells at the concentrations tested, prompted the synthesis of diethyl esters of compounds 6(a), 6(b), and 6(c). These derivatives were then tested with human leukemia cells (HL60 cells) grown in RPMI/fetal calf serum medium at 37° C.
# ^c Concentration for 50% cell kill.
# [5] = 0 h, 8.5 mM extracellular, 37° C.
# [6] = HEPES buffer (100 mM, pH 7.4), 25° C.
compound,measurement,setting,value
"CN(O)C(=O)SC[C@H](NC(=O)CC[C@H](N)C(=O)O)C(=O)NCC(=O)O [[^35 S] .circle-solid., [^35 S] S-(N-Hydroxy N-Methylcarbamoyl) Glutathione]",Extracellular Total 35S species,[1]; 0 h,8.44 mM
same,Extracellular [35S] GSH + [35S] GSSG,[1]; 0 h,~ 0.01 mM
same,Extracellular [35S] S-(N-hydroxy N-methylcarbamoyl) glutathione,[1]; 0 h,8.20 mM
same,Intracellular Total 35S species,[1]; [5],~ 0 mM
same,Extracellular Total 35S species,[1]; 6 h,8.57 mM
same,Extracellular [35S] GSH + [35S] GSSG,[1]; 6 h,0.15 mM
same,Extracellular [35S] S-(N-hydroxy N-methylcarbamoyl) glutathione,[1]; 6 h,8.32 mM
same,Intracellular Total 35S species,[1]; 6 h,0.02 mM
same,Extracellular Total 35S species,[1]; 12 h,8.67 mM
same,Extracellular [35S] GSH + [35S] GSSG,[1]; 12 h,0.14 mM
same,Extracellular [35S] S-(N-hydroxy N-methylcarbamoyl) glutathione,[1]; 12 h,8.39 mM
same,Intracellular Total 35S species,[1]; 12 h,0.03 mM
same,Intracellular [35S] GSH + [35S] GSSG,[1]; 12 h,~ 0.01 mM
same,Intracellular [35S] S-(N-hydroxy N-methylcarbamoyl) glutathione,[1]; 12 h,~ 0.01 mM
same,Extracellular Total 35S species,[1]; 24 h,8.24 mM
same,Extracellular [35S] GSH + [35S] GSSG,[1]; 24 h,0.14 mM
same,Extracellular [35S] S-(N-hydroxy N-methylcarbamoyl) glutathione,[1]; 24 h,7.96 mM
same,Intracellular Total 35S species,[1]; 24 h,0.12 mM
same,Intracellular [35S] GSH + [35S] GSSG,[1]; 24 h,0.03 mM
same,Intracellular [35S] S-(N-hydroxy N-methylcarbamoyl) glutathione,[1]; 24 h,0.08 mM
same,Extracellular Total 35S species,[1]; 36 h,8.24 mM
same,Extracellular [35S] GSH + [35S] GSSG,[1]; 36 h,0.13 mM
same,Extracellular [35S] S-(N-hydroxy N-methylcarbamoyl) glutathione,[1]; 36 h,7.96 mM
same,Intracellular Total 35S species,[1]; 36 h,0.31 mM
same,Intracellular [35S] GSH + [35S] GSSG,[1]; 36 h,0.04 mM
same,Intracellular [35S] S-(N-hydroxy N-methylcarbamoyl) glutathione,[1]; 36 h,0.26 mM
same,Extracellular Total 35S species,[1]; 48 h,8.50 mM
same,Extracellular [35S] GSH + [35S] GSSG,[1]; 48 h,0.14 mM
same,Extracellular [35S] S-(N-hydroxy N-methylcarbamoyl) glutathione,[1]; 48 h,8.19 mM
same,Intracellular Total 35S species,[1]; 48 h,0.44 mM
same,Intracellular [35S] GSH + [35S] GSSG,[1]; 48 h,0.04 mM
same,Intracellular [35S] S-(N-hydroxy N-methylcarbamoyl) glutathione,[1]; 48 h,0.37 mM
"CCOC(=O)CNC(=O)[C@H](CSC(=O)N(C)O)NC(=O)CC[C@H](N)C(=O)O [[^35 S] .box-solid., [^35 S] S-(N-Hydroxy N-Methyl Carbamoyl) Glutathione [Glycyl]-O-Ethyl Ester]",diffusion rate into erythrocytes relative to [35S] 2,[1],~ 2 fold
same,Extracellular Total 35S species,[1]; 0 h,8.54 mM
same,Extracellular [35S] S-(N-hydroxy N-methylcarbamoyl) glutathione,[1]; 0 h,1.27 mM
same,Extracellular [35S] S-(N-hydroxy N-methylcarbamoyl) glutathione glycyl-O-ethyl ester,[1]; 0 h,7.22 mM
same,Intracellular Total 35S species,[1]; [5],~ 0.01 mM
same,Extracellular [35S] S-(N-hydroxy N-methylcarbamoyl) glutathione,"[1]; 0 h, listed as [^35 S] 2(Et)",1.3 mM
same,Extracellular Total 35S species,[1]; 6 h,8.60 mM
same,Extracellular [35S] S-(N-hydroxy N-methylcarbamoyl) glutathione,[1]; 6 h,1.27 mM
same,Extracellular [35S] S-(N-hydroxy N-methylcarbamoyl) glutathione glycyl-O-ethyl ester,[1]; 6 h,7.17 mM
same,Intracellular Total 35S species,[1]; 6 h,0.05 mM
same,Intracellular [35S] S-(N-hydroxy N-methylcarbamoyl) glutathione,[1]; 6 h,~ 0.01 mM
same,Intracellular [35S] S-(N-hydroxy N-methylcarbamoyl) glutathione glycyl-O-ethyl ester,[1]; 6 h,~ 0.01 mM
same,Extracellular Total 35S species,[1]; 12 h,8.62 mM
same,Extracellular [35S] S-(N-hydroxy N-methylcarbamoyl) glutathione,[1]; 12 h,1.42 mM
same,Extracellular [35S] S-(N-hydroxy N-methylcarbamoyl) glutathione glycyl-O-ethyl ester,[1]; 12 h,7.02 mM
same,Intracellular Total 35S species,[1]; 12 h,0.07 mM
same,Intracellular [35S] S-(N-hydroxy N-methylcarbamoyl) glutathione,[1]; 12 h,0.02 mM
same,Intracellular [35S] S-(N-hydroxy N-methylcarbamoyl) glutathione glycyl-O-ethyl ester,[1]; 12 h,0.03 mM
same,Extracellular Total 35S species,[1]; 24 h,8.49 mM
same,Extracellular [35S] S-(N-hydroxy N-methylcarbamoyl) glutathione,[1]; 24 h,1.65 mM
same,Extracellular [35S] S-(N-hydroxy N-methylcarbamoyl) glutathione glycyl-O-ethyl ester,[1]; 24 h,6.62 mM
same,Intracellular Total 35S species,[1]; 24 h,0.20 mM
same,Intracellular [35S] S-(N-hydroxy N-methylcarbamoyl) glutathione,[1]; 24 h,0.05 mM
same,Intracellular [35S] S-(N-hydroxy N-methylcarbamoyl) glutathione glycyl-O-ethyl ester,[1]; 24 h,0.12 mM
same,Extracellular Total 35S species,[1]; 36 h,8.09 mM
same,Extracellular [35S] S-(N-hydroxy N-methylcarbamoyl) glutathione,[1]; 36 h,1.83 mM
same,Extracellular [35S] S-(N-hydroxy N-methylcarbamoyl) glutathione glycyl-O-ethyl ester,[1]; 36 h,6.01 mM
same,Intracellular Total 35S species,[1]; 36 h,0.45 mM
same,Intracellular [35S] S-(N-hydroxy N-methylcarbamoyl) glutathione,[1]; 36 h,0.14 mM
same,Intracellular [35S] S-(N-hydroxy N-methylcarbamoyl) glutathione glycyl-O-ethyl ester,[1]; 36 h,0.28 mM
same,Extracellular Total 35S species,[1]; 48 h,7.90 mM
same,Extracellular [35S] S-(N-hydroxy N-methylcarbamoyl) glutathione,[1]; 48 h,1.89 mM
same,Extracellular [35S] S-(N-hydroxy N-methylcarbamoyl) glutathione glycyl-O-ethyl ester,[1]; 48 h,5.70 mM
same,Intracellular Total 35S species,[1]; 48 h,0.67 mM
same,Intracellular [35S] S-(N-hydroxy N-methylcarbamoyl) glutathione,[1]; 48 h,0.24 mM
same,Intracellular [35S] S-(N-hydroxy N-methylcarbamoyl) glutathione glycyl-O-ethyl ester,[1]; 48 h,0.39 mM
same,final intracellular [35S] 2 relative to that expected from import of contaminating [35S] 2,[1]; 48 h,about 3 fold
same,Extracellular [35S] S-(N-hydroxy N-methylcarbamoyl) glutathione,"[1]; 48 h, listed as [^35 S] 2(Et)",1.9 mM
"N[C@@H](CCC(=O)N[C@@H](CSC(=O)N(O)c1ccc(Cl)cc1)C(=O)NCC(=O)O)C(=O)O [Compound 6b, S-(N-Hydroxy-N-4-chlorophenylcarbamoyl) glutathione]",π (Hansch hydrophobicity constant),[2],3.04
same,Ki,[3],3.4 ± 0.8 µM
same,Vm (rel.),[3]; [6],(1.5 ± 0.3) × 10^-5
same,LC50 (concentration for 50% cell kill),[4],> 1000 µM
same,TGI (concentration for total cell growth inhibition),[4],> 1000 µM
same,IC50,[4],~100 µM
"N[C@@H](CCC(=O)N[C@@H](CSC(=O)N(O)c1ccccc1)C(=O)NCC(=O)O)C(=O)O [Compound 6a, S-(N-Hydroxy N-Phenylcarbamoyl) Glutathione]",π (Hansch hydrophobicity constant),[2],2.13
same,Ki,[3],11 ± 1.2 µM
same,Km,"[3]; as substrate, HEPES buffer (100 mM, pH 7.4), 25° C.",13 ± 2 µM
same,Vm (rel.),[3]; [6],(0.46 ± 0.01) × 10^-5
same,LC50 (concentration for 50% cell kill),[4],> 1000 µM
same,TGI (concentration for total cell growth inhibition),[4],> 1000 µM
same,IC50,[4],~100 µM
"N[C@@H](CCC(=O)N[C@@H](C[35SH])C(=O)NCC(=O)O)C(=O)O [[^35 S] GSH, reference compound]",Extracellular Total 35S species,[1]; 0 h,8.48 mM
same,Extracellular [35S] GSH,[1]; 0 h,7.95 mM
same,Extracellular [35S] GSSG,[1]; 0 h,0.43 mM
same,Intracellular Total 35S species,[1]; [5],~ 0 mM
same,Extracellular Total 35S species,[1]; 6 h,8.56 mM
same,Extracellular [35S] GSH,[1]; 6 h,7.90 mM
same,Extracellular [35S] GSSG,[1]; 6 h,0.53 mM
same,Intracellular Total 35S species,[1]; 6 h,0.04 mM
same,Intracellular [35S] GSH,[1]; 6 h,0.02 mM
same,Intracellular [35S] GSSG,[1]; 6 h,0.02 mM
same,Extracellular Total 35S species,[1]; 12 h,8.61 mM
same,Intracellular Total 35S species,[1]; 12 h,0.05 mM
same,Extracellular Total 35S species,[1]; 24 h,8.38 mM
same,Intracellular Total 35S species,[1]; 24 h,0.13 mM
same,Extracellular Total 35S species,[1]; 36 h,8.37 mM
same,Intracellular Total 35S species,[1]; 36 h,0.28 mM
same,Extracellular Total 35S species,[1]; 48 h,8.23 mM
same,Extracellular [35S] GSH,[1]; 48 h,5.31 mM
same,Extracellular [35S] GSSG,[1]; 48 h,2.49 mM
same,Intracellular Total 35S species,[1]; 48 h,0.48 mM
same,Intracellular [35S] GSH,[1]; 48 h,0.10 mM
same,Intracellular [35S] GSSG,[1]; 48 h,0.27 mM
